Data from PubChem BioAssay (NCI).
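Following 48 hours of exposure in 96-well plates, responses at five concentrations were used to interpolate endpoints linearly. The concentration for 50% growth inhibition is given as GI50. The concentration for full growth arrest is given as TGI.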

Assays:
Experiment in all cases: NCI anticancer screen, dose series, 48 h
[1] = system: DU-145 prostate
[2] = system: SR leukemia
[3] = system: KM12 colon
[4] = system: UACC-62 melanoma
[5] = system: MDA-MB-435
[6] = system: NCI-H23 lung
[7] = system: CAKI-1 renal
[8] = system: RPMI-8226 leukemia
[9] = system: HS 578T breast
[10] = system: PC-3 prostate
[11] = system: RXF 393 renal
[12] = system: MALME-3M melanoma
[13] = system: M14 melanoma
[14] = system: NCI/ADR-RES ovarian
[15] = system: LOX IMVI melanoma
[16] = system: A498 renal
[17] = system: 786-0 renal
[18] = system: K-562 leukemia
[19] = system: A549 NSCLC
[20] = system: UO-31 renal
[21] = system: NCI-H522 lung
[22] = system: T-47D breast
[23] = system: U251 CNS
[24] = system: OVCAR-8 ovarian
[25] = system: ACHN renal
[26] = system: SF-539 CNS
[27] = system: SW-620 colon
[28] = system: BT-549 breast
[29] = system: SK-OV-3 ovarian
[30] = system: SNB-19 CNS
[31] = system: OVCAR-4 ovarian
[32] = system: COLO 205 colon
[33] = system: HOP-62 NSCLC
[34] = system: SK-MEL-28 melanoma
[35] = system: OVCAR-3 ovarian
[36] = system: HCT-116 colon
[37] = system: EKVX NSCLC
[38] = system: MDA-MB-231 breast
[39] = system: HT29 colon
[40] = system: HCT-15 colon
[41] = system: NCI-H226 lung
[42] = system: HL-60(TB) leukemia
[43] = system: SNB-75 CNS
[44] = system: OVCAR-5 ovarian
[45] = system: SK-MEL-2 melanoma
[46] = system: MCF7 breast
[47] = system: TK-10 renal
[48] = system: MOLT-4 leukemia
[49] = system: CCRF-CEM leukemia
[50] = system: IGROV1 ovarian
[51] = system: SF-295 CNS
[52] = system: SF-268 CNS
[53] = system: HOP-92 NSCLC
[54] = system: SK-MEL-5 melanoma
[55] = system: NCI-H460 lung
[56] = system: SN12C renal
[57] = system: UACC-257 melanoma
[58] = system: HCC-2998 colon

COC(=O)C(NC(=O)C12CCC(C)(C(=O)O1)C2(C)C)c1cc(C(C)(C)C)c(O)c(C(C)(C)C)c1 (stereo unspecified)
TGI [1]: > 100 µM
TGI [2]: > 100 µM
TGI [3]: > 100 µM
TGI [4]: > 100 µM
TGI [5]: > 100 µM
TGI [6]: > 100 µM
TGI [7]: > 100 µM
TGI [8]: > 100 µM
TGI [9]: > 100 µM
TGI [10]: > 100 µM
TGI [11]: > 100 µM
TGI [12]: > 100 µM
TGI [13]: > 100 µM
TGI [14]: > 100 µM
TGI [15]: > 100 µM
TGI [16]: > 100 µM
TGI [17]: > 100 µM
TGI [18]: > 100 µM
TGI [19]: > 100 µM
TGI [20]: > 100 µM
TGI [21]: > 100 µM
TGI [22]: > 100 µM
TGI [23]: > 100 µM
TGI [24]: > 100 µM
TGI [25]: > 100 µM
TGI [26]: > 100 µM
TGI [27]: > 100 µM
TGI [28]: > 100 µM
TGI [29]: > 100 µM
TGI [30]: > 100 µM
TGI [31]: > 100 µM
TGI [32]: > 100 µM
TGI [33]: > 100 µM
TGI [34]: > 100 µM
TGI [35]: > 100 µM
TGI [36]: > 100 µM
TGI [37]: > 100 µM
TGI [38]: > 100 µM
TGI [39]: > 100 µM
TGI [40]: > 100 µM
TGI [41]: > 100 µM
TGI [42]: 32.1 µM
TGI [43]: > 100 µM
TGI [44]: > 100 µM
TGI [45]: > 100 µM
TGI [46]: > 100 µM
TGI [47]: > 100 µM
TGI [48]: > 100 µM
TGI [49]: > 100 µM
TGI [50]: > 100 µM
TGI [51]: > 100 µM
TGI [52]: > 100 µM
TGI [53]: > 100 µM
TGI [54]: > 100 µM

C=C1CCC2C3(C)COC(c4cccc(Cl)c4)OC3CCC2(C)C1/C=C/C1=CCOC1=O (stereo unspecified)
GI50 [1]: > 100 µM
TGI [1]: > 100 µM
GI50 [2]: 4.11 µM
TGI [2]: > 100 µM
GI50 [3]: 8.01 µM
TGI [3]: > 100 µM
GI50 [4]: 6.35 µM
TGI [4]: > 100 µM
GI50 [5]: 9.68 µM
TGI [5]: > 100 µM
GI50 [6]: 5.17 µM
TGI [6]: > 100 µM
GI50 [7]: 7.78 µM
TGI [7]: > 100 µM
GI50 [8]: 2.9 µM
TGI [8]: > 100 µM
GI50 [9]: 7.42 µM
TGI [9]: > 100 µM
GI50 [10]: 3.77 µM
TGI [10]: > 100 µM
GI50 [11]: > 100 µM
TGI [11]: > 100 µM
GI50 [12]: > 100 µM
TGI [12]: > 100 µM
GI50 [13]: > 100 µM
TGI [13]: > 100 µM
GI50 [14]: 6.06 µM
TGI [14]: > 100 µM
GI50 [15]: 2.72 µM
TGI [15]: > 100 µM
GI50 [16]: 2.54 µM
TGI [16]: > 100 µM
GI50 [17]: > 100 µM
TGI [17]: > 100 µM
GI50 [18]: 2.8 µM
TGI [18]: > 100 µM
GI50 [19]: 3.31 µM
TGI [19]: > 100 µM
GI50 [21]: 2.92 µM
TGI [21]: > 100 µM
GI50 [22]: 1.83 µM
TGI [22]: > 100 µM
GI50 [23]: 7.08 µM
TGI [23]: > 100 µM
GI50 [24]: 6.73 µM
TGI [24]: > 100 µM
GI50 [25]: > 100 µM
TGI [25]: > 100 µM
GI50 [26]: 48.5 µM
TGI [26]: > 100 µM
GI50 [27]: 80.3 µM
TGI [27]: > 100 µM
GI50 [28]: 6.21 µM
TGI [28]: > 100 µM
GI50 [29]: > 100 µM
TGI [29]: > 100 µM
GI50 [30]: > 100 µM
TGI [30]: > 100 µM
GI50 [33]: > 100 µM
TGI [33]: > 100 µM
GI50 [34]: > 100 µM
TGI [34]: > 100 µM
GI50 [35]: 7.95 µM
TGI [35]: > 100 µM
GI50 [36]: 3.08 µM
TGI [36]: > 100 µM
GI50 [37]: 2.55 µM
TGI [37]: > 100 µM
GI50 [38]: 6.84 µM
TGI [38]: > 100 µM
GI50 [39]: 5.32 µM
TGI [39]: > 100 µM
GI50 [40]: 6.75 µM
TGI [40]: > 100 µM
GI50 [41]: 6.92 µM
TGI [41]: > 100 µM
GI50 [42]: 8.27 µM
TGI [42]: > 100 µM
GI50 [55]: 5.15 µM
TGI [55]: > 100 µM
GI50 [43]: 6.46 µM
TGI [43]: > 100 µM
GI50 [44]: > 100 µM
TGI [44]: > 100 µM
GI50 [45]: > 100 µM
TGI [45]: > 100 µM
GI50 [56]: > 100 µM
TGI [56]: > 100 µM
GI50 [46]: 3.8 µM
TGI [46]: > 100 µM
GI50 [47]: > 100 µM
TGI [47]: > 100 µM
GI50 [48]: 6.55 µM
TGI [48]: > 100 µM
GI50 [49]: 7.51 µM
TGI [49]: > 100 µM
GI50 [50]: > 100 µM
TGI [50]: > 100 µM
GI50 [51]: 3.59 µM
TGI [51]: > 100 µM
GI50 [52]: > 100 µM
TGI [52]: > 100 µM
GI50 [57]: 3.43 µM
TGI [57]: > 100 µM
GI50 [53]: > 100 µM
TGI [53]: > 100 µM
GI50 [54]: 3.39 µM
TGI [54]: > 100 µM

COc1ccc([N+](=O)[O-])cc1[I+]c1cc([N+](=O)[O-])ccc1OC
TGI [1]: > 100 µM
TGI [2]: 26.7 µM
TGI [3]: 94.7 µM
TGI [4]: 94.8 µM
TGI [5]: 49.3 µM
TGI [6]: > 100 µM
TGI [7]: > 100 µM
TGI [8]: > 100 µM
TGI [9]: > 100 µM
TGI [58]: > 100 µM
TGI [10]: > 100 µM
TGI [11]: > 100 µM
TGI [12]: 17.1 µM
TGI [13]: > 100 µM
TGI [14]: > 100 µM
TGI [15]: 73.1 µM
TGI [16]: > 100 µM
TGI [17]: > 100 µM
TGI [18]: > 100 µM
TGI [19]: > 100 µM
TGI [20]: > 100 µM
TGI [21]: > 100 µM
TGI [22]: > 100 µM
TGI [23]: 34.2 µM
TGI [24]: > 100 µM
TGI [25]: > 100 µM
TGI [26]: > 100 µM
TGI [27]: > 100 µM
TGI [28]: > 100 µM
TGI [29]: 82.3 µM
TGI [30]: > 100 µM
TGI [32]: > 100 µM
TGI [33]: > 100 µM
TGI [34]: 21.8 µM
TGI [35]: > 100 µM
TGI [36]: > 100 µM
TGI [37]: > 100 µM
TGI [38]: > 100 µM
TGI [39]: > 100 µM
TGI [40]: > 100 µM
TGI [41]: > 100 µM
TGI [42]: 97.6 µM
TGI [55]: 80.3 µM
TGI [44]: > 100 µM
TGI [45]: > 100 µM
TGI [56]: > 100 µM
TGI [46]: > 100 µM
TGI [47]: > 100 µM
TGI [49]: > 100 µM
TGI [50]: > 100 µM
TGI [51]: > 100 µM
TGI [52]: > 100 µM
TGI [57]: > 100 µM
TGI [54]: 24.9 µM
